# From patent US8071586B2, “Heterocyclyl compounds” (Hoffmann-La Roche Inc., priority 2008, dated 2011)
# Biological target: T1, human chemokine receptor 2 isoform B (CCR2) (Homo sapiens, UniProt P41597)
# T1 sequence (P41597 1-360 isoform P41597-2): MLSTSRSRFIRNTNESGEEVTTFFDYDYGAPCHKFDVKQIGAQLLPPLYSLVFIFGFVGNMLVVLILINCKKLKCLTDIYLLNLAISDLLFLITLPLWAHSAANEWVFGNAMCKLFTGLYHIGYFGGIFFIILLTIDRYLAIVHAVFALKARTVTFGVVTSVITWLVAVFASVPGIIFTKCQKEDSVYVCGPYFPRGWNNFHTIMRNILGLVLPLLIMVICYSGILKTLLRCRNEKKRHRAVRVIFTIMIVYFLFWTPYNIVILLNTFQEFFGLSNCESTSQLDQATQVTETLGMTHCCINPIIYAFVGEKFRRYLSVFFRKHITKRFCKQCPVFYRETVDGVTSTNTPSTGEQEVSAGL
# Experiment: Calcium mobilization assay (FLIPR, MCP-1 stimulated CHOK1-CCR2B-A5 cells)
# Assay type: cell-based
# Settings: Ca mobilisation assay, CCR2 antagonist activity, inhibition of MCP-1 induced calcium increase
# Experimental: Calcium Mobilization Assay
# CHOK1-CCR2B-A5 cells (from Euroscreen) stably overexpressing the human chemokine receptor 2 isoform B were cultured in Nutrient Hams F12 medium supplemented with 5% FBS, 100 U/ml penicillin, 100 μg/ml streptomycin, 400 μg/ml G418 and 5 μg/ml puromycin.
# For the assay cells were grown overnight in 384-well black clear flat bottom polystyrene plates (Costar) at 37° C. at 5% CO2. After washing with DMEM, 20 mM Hepes, 2.5 mM probenecid, 0.1% BSA (DMEM assay buffer) cells were loaded with 4 μM Fluo-4 in the same DMEM assay buffer for 2 hours at 30° C. Excess dye was removed and cells were washed with DMEM assay buffer. 384-well compound plates were prepared with DMEM assay buffer/0.5% DMSO with or without various concentrations of test compounds. Usually compounds were tested for agonist and antagonist activity.
# Test compounds were added to the assay plate and agonist activity was monitored as fluorescence for 80 seconds with a FLIPR (488 nm excitation; 510-570 nm emission; Molecular Devices). After 20-30 min. of incubation at 30° C., […] MCP-1 (R&D; Roche) was added and fluorescence was monitored again for 80 seconds. Increases in intracellular calcium are reported as maximum fluorescence after agonist exposure minus basal fluorescence before exposure. Antagonist activity is indicated as inhibitor concentration required for 50% inhibition of specific calcium increases.
row,SMILES,IC50 [nM]
1,"C[C@H]1C(=O)N(CCCN2CCC3(CC3)[C@H](O)C2)CCN1C(=O)Nc1cccc(F)c1 [Example 73, (S)-4-[3-((S)-4-Hydroxy-6-aza-spiro[2.5]oct-6-yl)-propyl]-2-methyl-3-oxo-piperazine-1-carboxylic acid (3-fluoro-phenyl)-amide]",21
2,"C[C@H]1C(=O)N(CCCN2CCC3(CC3)[C@H](O)C2)CCN1C(=O)Nc1ccccc1 [Example 74, (S)-4-[3-((S)-4-Hydroxy-6-aza-spiro[2.5]oct-6-yl)-propyl]-2-methyl-3-oxo-piperazine-1-carboxylic acid phenylamide]",64
3,"C[C@H]1C(=O)N(CCCN2CCC3(CC3)[C@H](O)C2)CCN1C(=O)Nc1ccc2ccccc2c1 [Example 75, (S)-4-[3-((S)-4-Hydroxy-6-aza-spiro[2.5]oct-6-yl)-propyl]-2-methyl-3-oxo-piperazine-1-carboxylic acid naphthalen-2-ylamide]",3
4,"C[C@H]1C(=O)N(CCCN2CCC3(CC3)[C@H](O)C2)CCN1C(=O)Nc1ccc(-c2ccccc2)cc1 [Example 76, (S)-4-[3-((S)-4-Hydroxy-6-aza-spiro[2.5]oct-6-yl)-propyl]-2-methyl-3-oxo-piperazine-1-carboxylic acid biphenyl-4-ylamide]",3
5,"C[C@H]1C(=O)N(CCCN2CCC3(CC3)[C@H](O)C2)CCN1C(=O)NCc1ccc(Cl)cc1 [Example 77, (S)-4-[3-((S)-4-Hydroxy-6-aza-spiro[2.5]oct-6-yl)-propyl]-2-methyl-3-oxo-piperazine-1-carboxylic acid 4-chloro-benzylamide]",110
6,"C[C@H]1C(=O)N(CCCN2CCC3(CC3)[C@H](O)C2)CCN1C(=O)Nc1cccc(-c2ccccc2)c1 [Example 78, (S)-4-[3-((S)-4-Hydroxy-6-aza-spiro[2.5]oct-6-yl)-propyl]-2-methyl-3-oxo-piperazine-1-carboxylic acid biphenyl-3-ylamide]",2
7,"COC[C@H](CCN1CCC2(CC2)[C@H](O)C1)N1CCN(C(=O)Nc2ccc(F)c(Cl)c2)[C@@H](C)C1=O [Example 79, (S)-4-[(S)-3-((S)-4-Hydroxy-6-aza-spiro[2.5]oct-6-yl)-1-methoxymethyl-propyl]-2-methyl-3-oxo-piperazine-1-carboxylic acid (3-chloro-4-fluoro-phenyl)-amide]",3
8,"COC[C@H](CCN1CCC2(CC2)[C@H](O)C1)N1CCN(C(=O)Nc2ccc(Cl)c(Cl)c2)[C@@H](C)C1=O [Example 80, (S)-4-[(S)-3-((S)-4-Hydroxy-6-aza-spiro[2.5]oct-6-yl)-1-methoxymethyl-propyl]-2-methyl-3-oxo-piperazine-1-carboxylic acid (3,4-dichloro-phenyl)-amide]",1
9,"COC[C@H](CCN1CCCCC1)N1CCN(C(=O)Nc2ccc(Cl)c(Cl)c2)[C@@H](C)C1=O [Example 81, (S)-4-((S)-1-Methoxymethyl-3-piperidin-1-yl-propyl)-2-methyl-3-oxo-piperazine-1-carboxylic acid (3,4-dichloro-phenyl)-amide]",9
10,"COC[C@H](CCN1CCC2(CC2)[C@H](O)C1)N1CCN(C(=O)Nc2cccc(Cl)c2)[C@@H](C)C1=O [Example 82, (S)-4-[(S)-3-((S)-4-Hydroxy-6-aza-spiro[2.5]oct-6-yl)-1-methoxymethyl-propyl]-2-methyl-3-oxo-piperazine-1-carboxylic acid (3-chloro-phenyl)-amide]",4
11,"COC[C@H](CCN1CCC2(CC2)[C@H](O)C1)N1CCN(C(=O)Nc2cccc(F)c2)[C@@H](C)C1=O [Example 83, (S)-4-[(S)-3-((S)-4-Hydroxy-6-aza-spiro[2.5]oct-6-yl)-1-methoxymethyl-propyl]-2-methyl-3-oxo-piperazine-1-carboxylic acid (3-fluoro-phenyl)-amide]",9
12,"COC[C@H](CCN1CCC2(CC2)[C@H](O)C1)N1CCN(C(=O)Nc2ccccc2)[C@@H](C)C1=O [Example 84, (S)-4-[(S)-3-((S)-4-Hydroxy-6-aza-spiro[2.5]oct-6-yl)-1-methoxymethyl-propyl]-2-methyl-3-oxo-piperazine-1-carboxylic acid phenylamide]",42
